{"source": "paper PMC4473678", "about": "“Swedish mutant APP-based BACE1 binding site peptide reduces APP β-cleavage and cerebral Aβ levels in Alzheimer’s mice” (Scientific Reports, 2015)", "system": "recombinant BACE1 protein", "test": "WB of BACE1-mediated cleavage of biotin-labeled peptide, cell-free", "type": "biochemical", "details": "10 μg biotin-labeled TAT-APPsweBBP with 10 μL recombinant BACE1 (1.0 U/mL), 4 h, 37 °C", "description": "In order to confirm that APPsweBBP containing the β-cleavage site could bind to and be consequently proteolyzed by BACE1, 10 μg of biotin-labeled TAT-APPsweBBP was incubated with or without 10 μL of recombinant BACE1 protein (1.0 U/mL) in BACE1 reaction buffer for 4 h at 37 °C and then subjected to WB analysis as described previously. In addition, we performed immunoprecipitation (IP) and WB analyses of this mixture with anti-BACE1 and anti-biotin antibodies to confirm that TAT-APPsweBBP, but not TAT, specifically binds to BACE1.", "note": "Entries after “also recorded” stand apart in the source; their conditions may differ."}
{"sequence": "YGRKKRRQRRREISEVNLDAEFR [APPsweBBP conjugated with the membrane fusion fragment of HIV-1 Tat protein]", "values": [{"measurement": "cleavage by BACE1", "result": "is cleaved by BACE1; also recorded: can also be cleaved"}]}
